Reference: patent EP0051301A1, “1-Carboxy-azaalkyl-indolin-2-carboxylic acids, process for preparing them, pharmaceutical compositions containing them and their therapeutical use” (CIBA-GEIGY AG, priority 1980, dated 1982)
pIC50: −log10 of the molar value. Counter-ions that a name gives are not always drawn.

Legend:
[1] = biological target: T1, angiotensin converting enzyme = ACE (Oryctolagus cuniculus, UniProt P12822); test: In vitro ACE inhibition (ACEI), release of histidyl-leucine from hippuryl-histidyl-leucine, rabbit lung tissue preparation; type: biochemical, Kaninchen; conditions: incubation 30 min at 37°
T1 construct: Dieses Enzym wird aus Lungen von erwachsenen männlichen Kaninchen in Tris-Puffer; from tissue; host or cells: lung of adult male rabbits
T1 sequence (P12822 34-1310): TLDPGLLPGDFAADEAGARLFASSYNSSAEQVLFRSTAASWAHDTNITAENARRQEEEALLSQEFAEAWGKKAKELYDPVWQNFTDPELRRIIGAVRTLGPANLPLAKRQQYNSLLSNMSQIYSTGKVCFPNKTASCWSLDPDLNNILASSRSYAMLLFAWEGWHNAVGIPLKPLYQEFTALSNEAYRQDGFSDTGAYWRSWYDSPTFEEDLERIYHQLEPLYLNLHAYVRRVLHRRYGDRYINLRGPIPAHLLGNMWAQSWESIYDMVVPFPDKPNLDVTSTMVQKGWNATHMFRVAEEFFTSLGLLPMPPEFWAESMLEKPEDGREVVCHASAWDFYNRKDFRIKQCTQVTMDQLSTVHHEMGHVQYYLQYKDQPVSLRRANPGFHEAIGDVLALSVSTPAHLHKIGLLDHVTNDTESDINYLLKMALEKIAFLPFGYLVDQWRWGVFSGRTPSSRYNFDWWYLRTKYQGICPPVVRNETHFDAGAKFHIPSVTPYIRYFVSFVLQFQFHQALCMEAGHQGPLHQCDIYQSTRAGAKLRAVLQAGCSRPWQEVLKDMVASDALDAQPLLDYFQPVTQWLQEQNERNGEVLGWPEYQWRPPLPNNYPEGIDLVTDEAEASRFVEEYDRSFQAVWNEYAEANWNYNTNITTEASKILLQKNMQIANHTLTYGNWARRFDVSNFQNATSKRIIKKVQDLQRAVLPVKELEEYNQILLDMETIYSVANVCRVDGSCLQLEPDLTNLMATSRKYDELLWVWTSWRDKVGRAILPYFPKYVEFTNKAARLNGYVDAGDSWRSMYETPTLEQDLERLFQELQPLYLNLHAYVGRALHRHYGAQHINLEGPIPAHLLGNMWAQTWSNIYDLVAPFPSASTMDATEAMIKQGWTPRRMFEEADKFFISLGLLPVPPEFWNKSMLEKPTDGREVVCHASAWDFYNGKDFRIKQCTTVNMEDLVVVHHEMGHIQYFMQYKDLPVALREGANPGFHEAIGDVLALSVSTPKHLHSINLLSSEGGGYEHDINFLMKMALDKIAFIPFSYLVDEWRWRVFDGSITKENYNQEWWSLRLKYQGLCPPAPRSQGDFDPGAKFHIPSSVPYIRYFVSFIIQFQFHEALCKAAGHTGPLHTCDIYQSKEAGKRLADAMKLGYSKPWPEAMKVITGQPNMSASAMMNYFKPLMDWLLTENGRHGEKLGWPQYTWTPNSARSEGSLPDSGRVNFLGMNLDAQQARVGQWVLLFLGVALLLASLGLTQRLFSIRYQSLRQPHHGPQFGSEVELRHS
Source text: Die in vitro Hemmung des Enzyms, welches das Angiotensin umwandelt, kann bei den Verbindungen dieser Erfindung analog zu Biochim. Biophys. Acta 293, 451 (1973) nachgewiesen werden. Gemäss dieser Methode werden die genannten Verbindungen in ungefähr 1 mMol Konzentrationen in Phosphatpuffer, welcher von aussen mit Eis gekühlt wird, aufgelöst. Zu diesen Lösungen gibt man zuerst verschiedene µl-Mengen von 1 mMolarem Histidyl-leucin in Phosphatpuffer und dann 100 pl von 5mMolarem Hippuryl-histidyl-leucin in Phosphatpuffer und 50 pl des Angiotensin-umwandelnden Enzyms. Dieses Enzym wird aus Lungen von erwachsenen männlichen Kaninchen in Tris-Puffer, der Kalium-und Magnesiumchlorid und auch Rohrzucker enthält, frisch hergestellt. Die genannten Lösungen werden 30 Minuten bei 37° inkubiert und die weitere Reaktion wird durch Hinzufügen von 0,75 ml einer 0,6-normalen wässerigen Natriumhydroxidlösung gestoppt. Dann gibt man bei Zimmertemperatur 100 µl o-Phthalaldehyd und nach 10 Minuten 100 µl 6-normaler Chlorwasserstoffsäure dazu. Die Proben werden in einem Spektroghotometer bei 360 nm mit Wasser verglichen und ihre optische Dichte wird bestimmt. Diese Werte werden durch einen Konversionsfaktor einer Standard-Kurve angepasst, wobei man die während der genannten Inkubation von 30 Minuten gebildete Histidyl-leucin-Menge in Nanomolen erhält. Die Ergebnisse werden, um den IC50-Wert zu bestimmen, gegenüber den Wirkstoff-Konzentrationen graphisch als Kurve dargestellt. Dieser Wert bedeutet diejenige Wirkstoff-Konzentration, welche die Hälfte der Aktivität einer Kontrollprobe, die keinen Wirkstoff enthält, ergibt. Die genannten repräsentativen Verbindungen der vorliegenden Erfindung sind auch in diesem in vitro Testsystem, bis zu dem IC50-Wert von 39 nM und darunter, sehr wirksam.
Die Prüfung der Wirkung von Verbindungen ist gemäss den Methoden für die Auswertung der Hemmung des Enzyms, welches das Angiotensin umwandelt [angiotensin converting enzyme = ACE] durchgeführt worden. […]

[2] = test system: durch Angiotensin I (AI) hervorgerufenen Blutdrucksteigerung; test: Inhibition of the blood pressure rise caused by angiotensin I in anaesthetised normotensive rats; type: in vivo, Ratte; conditions: rat, mean value 30 min after administration
Source text: Die neuen Verbindungen zeigen auch eine Hemmwirkung auf das Ansprechen des Blutdrucks von normotensiven Ratten auf Angiotensin I. Das Enzym Renin verursacht unter normalen Verhältnissen eine spezifische Hydrolyse des zirkulierenden Renin-Substrat-Proteins. Diese Hydrolyse ergibt das Angiotensin I, welches durch die Einwirkung des genannten Enzyms, welches das Angiotensin umwandelt, in das stark gefässverengernde Angiotensin II weiter hydrolysiert wird. Durch Hemmung des genannten Enzyms wird die Entstehung des Angiotensins II aus I verhindert. Diese Hemmung dämpft daher jedes Ansprechen des Blutdrucks nach einer Angiotenin-I-Attacke.
Der entsprechende in vivo Test wird mit männlichen, normotensiven Ratten, welche mit 100-120 mg/kg intraperitoneal verabreichtem Natriumsalz des Aethyl-(l-methylpropyl)-malonylthioharnstoffs narkotisiert sind, vorgenommen. Eine femurale Arterie und eine Wadenvene werden mit je einer Hohlnadel für die direkte Messung des Blutdrucks und für die intravenöse Verabreichung des Angiotensins I und der erfindungsgemässen Verbindungen, versehen. Nach der Stabilisierung des basalen Blutdrucks, wird die Druckänderung nach drei, in 5-minutigen Intervallen durchgeführten, Reizungen mit 0,33 µg/kg Angiotensin I i.v., bestimmt. Druckänderungen werden auch 5, 10, 15, 30 und 60 Minuten nach entweder intravenöser oder peroraler Verabreichung (mit Magensonde) der zu prüfenden Verbindungen bestimmt. Die letztgenannten Druckänderungen werden mit den Anfangswerten verglichen. Jede festgestellte Abnahme vom Ansprechen des Blutdrucks ist ein Hinweis auf die Hemmung des Enzyms, welches das Angiotensin umwandelt. Diese Abnahme kann bis zu 80%, nach Dosen von 10 mg/kg i.v. oder 50 mg/kg p.o., betragen und bis 60 Minuten lang andauern.
In der in vivo Prüfungsmethode wird zuerst durch Verabreichung des Angiotensins 1 (AI) an das Versuchstier eine Blutdrucksteigerung hervorgerufen. Es wird dann die Hemmung der einzelnen Verbindungen auf diese Blutdrucksteigerung gemessen.
II. Methode der Hemmung der durch Angiotensin I (AI) hervorgerufenen Blutdrucksteigerung, durch intravenöse Verabreichung der Testverbindung (Z AI-Hemmung) In diesen Untersuchungen wird wie oben beschrieben, je ein Katheter in eine femurale Arterie und in eine Wadenvene der Ratte eingeführt.
Der arterielle Druck wurde von dem Arterienkatheter aus registriert, während man Angiotensin I (AI) und die einzelnen Testverbindungen durch den Venenkatheter injiziert hatte. Die Hemmung der durch Angiotensin I verursachten Blutdrucksteigerung ist in der Tabelle als Durchschnittswert 30 Minuten nach der Verabreichung von ausgewählten Dosen der jeweiligen Verbindung wiedergegeben. Dabei werden solche Dosierungen ausgewählt, so dass u.a. der ID50 (i.v.)-Wert ermittelt werden kann.

SMILES | pIC50 [1] | % AI Hemmungen ([2]; i.v. Dosis 0.1 mg/kg) [%] | % AI Hemmungen ([2]; i.v. Dosis 0.03 mg/kg) [%] | % AI Hemmungen ([2]; i.v. Dosis 0.06 mg/kg) [%] | % AI Hemmungen ([2]; i.v. Dosis 1.0 mg/kg) [%]
C[C@H](NC(CCc1ccccc1)C(=O)O)C(=O)N1c2ccccc2C[C@H]1C(=O)O (stereo partly drawn) [Beispiel 1, 1-[N-(1-Carboxy-3-phenylpropyl)-S-alanyl]-indolin-2S-carbonsäure] | 8.22 | 80 | – | – | –
CCOC(=O)[C@H](CCc1ccccc1)N[C@@H](C)C(=O)N1c2ccccc2C[C@H]1C(=O)O [Beispiel 4, 1-[N-(lS-Carboäthoxy-3-phenyl-propyl)-S-alanyl]-indolin-2S-carbonsäurehydrochlorid] | – | 95 | 33 | 80 | –
CCOC(=O)[C@@H](CCc1ccccc1)N[C@@H](C)C(=O)N1c2ccccc2C[C@H]1C(=O)O [Beispiel 6, 1-[N-(lR-Carboäthoxy-3-phenyl-propyl)-S-alanyl]-indolin-2S-carbonsäure-hydrochlorid] | 5.10 | 35 | – | – | –
C[C@H](NC(Cc1ccccc1)C(=O)O)C(=O)N1c2ccccc2C[C@H]1C(=O)O (stereo partly drawn) [Beispiel 7, 1-[N-(1-Carboxy-2-phenyl-äthyl)-S-alanyl]-indolin-2S-carbonsäure] | 7.52 | – | – | – | 80
